Measurements published in PMC7714403 (JCI Insight, 2020).

Key:
PITSLRE = PITSLRE (Homo sapiens, UniProt P21127); experiment: KiNativ, OCI cells live cell; type: cell-based; details: 2 h, labeling site Lys2, peptide […]
ABL1 = molecular target: T1, ABL1 (Homo sapiens, UniProt P00519); experiment: KdELECT binding assay
T1 construct: purchased Eurofins DiscoverX

MAST1, MAST2 = experiment: KiNativ, OCI cells live cell; type: cell-based, human; details: labeling site Lys2, peptide DLKPDNLLITSMGHIK
[1] = test system: Ba/F3 cells expressing FLT3 D835H/Y; experiment: MTT viability assay; type: cell-based; details: Mus musculus, BaF3, read-out: IC50 values, range
Procedure: (§1) Drug treatments were carried out for 72 hours. Details are provided in the Supplemental Methods.

[2] = test system: MV4-11, MOLM13, and MOLM13-RES cells; experiment: MTT viability assay; type: cell-based; details: Homo sapiens; range over MV4-11, MOLM13, MOLM13-RES
Procedure: as §1

CHEK2 = molecular target: T2, CHEK2 (Homo sapiens, UniProt O96017); experiment: KdELECT binding assay
T2 construct: purchased Eurofins DiscoverX

[3] = test system: phospho-FLT3 and phospho-STAT5 in MOLM13 and MV4-11 cells; experiment: Western blot, signaling inhibition; type: cell-based, human; details: 4 hours
Procedure: (§2) MOM13 cells were serum starved (RPMI plus 0.5% FBS) for 18–24 hours prior to start of drug treatment. For other cells, they were not serum starved. Drug treatments were carried out for 1 or 4 hours, at which time cells were lysed with Cell Lysis buffer (CST) or RIPA buffer (CST) supplemented with protease and phosphatase inhibitors. […] Western blots were developed with either Signal Fire ECL reagent (CST) or SuperSignal West Femto Maximum Sensitivity Substrate (Invitrogen) using Film or Odyssey FC Imaging System (LI-COR Biosciences). Western blots were repeated in 2–3 biological replicate experiments.

[4] = test system: pAURKA, pAURKB, pAKT, and MCL1 in OCI-AML3 cells; experiment: Western blot, signaling inhibition; type: cell-based, human; details: 100 nM, 4 hours
Procedure: as §2

LCK = LCK (Homo sapiens, UniProt P06239); experiment: KiNativ, OCI cells live cell; type: cell-based; details: 2 h, labeling site Activation Loop, peptide […]
p38d, p38g = experiment: KiNativ, OCI cells live cell; type: cell-based, human; details: labeling site Lys2, peptide DLKPGNLAVNEDCELK
CDK11, CDK8 = experiment: KiNativ, OCI cells live cell; type: cell-based, human; details: labeling site Lys2, peptide DLKPANILVMGEGPER
PKR = PKR (Homo sapiens, UniProt P19525); experiment: KiNativ, OCI cells live cell; type: cell-based
TAO1, TAO3 = experiment: KiNativ, OCI cells live cell; type: cell-based, human; details: labeling site Lys2, peptide DIKAGNILLTEPGQVK
MARK3, MARK4 = experiment: KiNativ, OCI cells live cell; type: cell-based, human; details: labeling site Lys1, peptide EVAIKIIDK
FLT3 D835Y = molecular target: T3, FLT3 D835Y (Homo sapiens, UniProt P36888, D835Y); experiment: Kinase assay by Reaction Biology; type: biochemical; details: enzymatic kinase assay
T3 construct: purchased Eurofins DiscoverX

CSF1R = molecular target: T4, CSF1R (Homo sapiens, UniProt P07333); experiment: KdELECT binding assay
T4 construct: purchased Eurofins DiscoverX

MAP3K4 = MAP3K4 (Homo sapiens, UniProt Q9Y6R4); experiment: KiNativ, OCI cells live cell; type: cell-based; details: 2 h
EphB3 = EphB3 (Homo sapiens, UniProt P54753); experiment: KiNativ, OCI cells live cell; type: cell-based; details: 2 h, labeling site Activation Loop, peptide […]
CaMK1d = CaMK1d (Homo sapiens, UniProt Q8IU85); experiment: KiNativ, OCI cells live cell; type: cell-based; details: 2 h
MLK4 = MLK4 (Homo sapiens, UniProt Q5TCX8); experiment: KiNativ, OCI cells live cell; type: cell-based; details: 2 h, labeling site Lys2, peptide […]
TAK1 = TAK1 (Homo sapiens, UniProt O43318); experiment: KiNativ, OCI cells live cell; type: cell-based; details: 2 h, labeling site Lys2, peptide […]

Chain of CaMK1d (Q8IU85 whole entry): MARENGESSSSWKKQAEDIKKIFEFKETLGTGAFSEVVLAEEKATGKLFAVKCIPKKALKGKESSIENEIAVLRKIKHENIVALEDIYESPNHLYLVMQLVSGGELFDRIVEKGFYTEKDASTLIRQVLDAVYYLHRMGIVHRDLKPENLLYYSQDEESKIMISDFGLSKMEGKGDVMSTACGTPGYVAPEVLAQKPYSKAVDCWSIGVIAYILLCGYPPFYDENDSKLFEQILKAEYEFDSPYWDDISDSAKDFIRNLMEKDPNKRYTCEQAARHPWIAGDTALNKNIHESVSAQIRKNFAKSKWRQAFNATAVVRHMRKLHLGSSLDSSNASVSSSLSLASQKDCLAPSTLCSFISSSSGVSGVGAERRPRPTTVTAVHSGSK
Chain of PKR (P19525 whole entry): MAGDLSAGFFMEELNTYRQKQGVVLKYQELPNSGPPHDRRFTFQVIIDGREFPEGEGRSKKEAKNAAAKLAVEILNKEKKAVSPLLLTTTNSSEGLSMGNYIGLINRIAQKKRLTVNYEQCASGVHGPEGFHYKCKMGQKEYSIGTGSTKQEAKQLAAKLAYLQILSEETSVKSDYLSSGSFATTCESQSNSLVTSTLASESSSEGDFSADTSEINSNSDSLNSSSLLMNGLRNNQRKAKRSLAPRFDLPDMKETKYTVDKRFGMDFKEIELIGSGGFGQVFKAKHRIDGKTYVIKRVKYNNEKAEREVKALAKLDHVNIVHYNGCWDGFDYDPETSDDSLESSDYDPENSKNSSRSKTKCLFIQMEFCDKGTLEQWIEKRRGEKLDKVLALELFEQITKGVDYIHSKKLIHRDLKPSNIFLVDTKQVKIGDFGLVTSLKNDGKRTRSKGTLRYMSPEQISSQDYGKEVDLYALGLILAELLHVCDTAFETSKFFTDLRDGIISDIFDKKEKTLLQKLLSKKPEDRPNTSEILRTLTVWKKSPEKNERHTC
Chain of MAP3K4 (Q9Y6R4 whole entry): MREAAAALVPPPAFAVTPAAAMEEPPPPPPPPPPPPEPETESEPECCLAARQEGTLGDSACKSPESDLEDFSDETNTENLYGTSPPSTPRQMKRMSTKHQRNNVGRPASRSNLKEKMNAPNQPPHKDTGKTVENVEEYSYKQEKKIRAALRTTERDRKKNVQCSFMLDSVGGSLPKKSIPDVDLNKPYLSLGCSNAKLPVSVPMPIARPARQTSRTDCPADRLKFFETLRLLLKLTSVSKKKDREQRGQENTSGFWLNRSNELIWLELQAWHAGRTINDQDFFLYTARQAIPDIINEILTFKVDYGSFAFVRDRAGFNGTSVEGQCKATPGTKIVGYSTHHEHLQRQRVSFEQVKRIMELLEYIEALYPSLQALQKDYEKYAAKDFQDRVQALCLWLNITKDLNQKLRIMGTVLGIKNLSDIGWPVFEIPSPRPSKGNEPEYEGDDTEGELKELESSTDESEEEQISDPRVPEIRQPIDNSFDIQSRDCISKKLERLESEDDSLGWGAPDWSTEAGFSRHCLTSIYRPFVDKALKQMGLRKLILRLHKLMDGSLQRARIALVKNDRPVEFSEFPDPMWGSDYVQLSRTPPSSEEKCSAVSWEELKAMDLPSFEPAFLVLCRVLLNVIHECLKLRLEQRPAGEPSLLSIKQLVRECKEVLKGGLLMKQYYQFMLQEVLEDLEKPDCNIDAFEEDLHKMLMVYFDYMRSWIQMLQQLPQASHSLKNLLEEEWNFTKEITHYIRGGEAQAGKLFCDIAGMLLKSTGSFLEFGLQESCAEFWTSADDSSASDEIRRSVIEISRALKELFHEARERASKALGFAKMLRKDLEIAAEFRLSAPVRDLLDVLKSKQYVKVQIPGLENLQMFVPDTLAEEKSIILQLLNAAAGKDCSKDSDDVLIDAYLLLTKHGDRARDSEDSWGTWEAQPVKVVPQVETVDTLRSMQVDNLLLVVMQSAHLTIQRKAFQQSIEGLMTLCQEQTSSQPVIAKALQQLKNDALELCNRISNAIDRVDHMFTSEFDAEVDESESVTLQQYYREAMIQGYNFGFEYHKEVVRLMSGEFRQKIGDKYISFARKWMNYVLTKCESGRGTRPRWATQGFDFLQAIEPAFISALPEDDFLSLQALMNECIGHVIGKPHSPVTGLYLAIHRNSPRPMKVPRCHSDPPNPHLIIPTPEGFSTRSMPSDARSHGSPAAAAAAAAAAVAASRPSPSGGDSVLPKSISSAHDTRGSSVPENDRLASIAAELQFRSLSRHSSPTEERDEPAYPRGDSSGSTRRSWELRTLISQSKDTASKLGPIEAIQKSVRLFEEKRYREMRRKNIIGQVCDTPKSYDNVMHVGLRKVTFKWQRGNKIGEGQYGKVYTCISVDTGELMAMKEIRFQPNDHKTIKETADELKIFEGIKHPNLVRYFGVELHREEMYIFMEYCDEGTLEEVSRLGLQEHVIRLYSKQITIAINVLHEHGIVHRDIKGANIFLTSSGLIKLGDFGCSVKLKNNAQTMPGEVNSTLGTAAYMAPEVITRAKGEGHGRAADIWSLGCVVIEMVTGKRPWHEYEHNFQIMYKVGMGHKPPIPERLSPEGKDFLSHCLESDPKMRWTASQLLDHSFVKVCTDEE
Chain of LCK (P06239 whole entry): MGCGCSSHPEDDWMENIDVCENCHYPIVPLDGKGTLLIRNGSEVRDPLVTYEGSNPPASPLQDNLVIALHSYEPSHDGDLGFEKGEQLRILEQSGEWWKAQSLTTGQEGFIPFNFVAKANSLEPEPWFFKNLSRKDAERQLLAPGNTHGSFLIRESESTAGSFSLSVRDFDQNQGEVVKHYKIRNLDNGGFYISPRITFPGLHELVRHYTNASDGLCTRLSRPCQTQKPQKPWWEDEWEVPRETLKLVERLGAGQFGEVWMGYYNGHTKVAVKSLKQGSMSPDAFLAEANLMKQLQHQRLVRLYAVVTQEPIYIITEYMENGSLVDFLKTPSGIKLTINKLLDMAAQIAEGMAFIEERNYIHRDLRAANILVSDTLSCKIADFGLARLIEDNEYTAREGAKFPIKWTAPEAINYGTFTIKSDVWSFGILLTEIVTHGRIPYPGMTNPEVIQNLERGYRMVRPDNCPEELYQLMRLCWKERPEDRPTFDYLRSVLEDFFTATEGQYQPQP
T4 sequence (P07333 20-972): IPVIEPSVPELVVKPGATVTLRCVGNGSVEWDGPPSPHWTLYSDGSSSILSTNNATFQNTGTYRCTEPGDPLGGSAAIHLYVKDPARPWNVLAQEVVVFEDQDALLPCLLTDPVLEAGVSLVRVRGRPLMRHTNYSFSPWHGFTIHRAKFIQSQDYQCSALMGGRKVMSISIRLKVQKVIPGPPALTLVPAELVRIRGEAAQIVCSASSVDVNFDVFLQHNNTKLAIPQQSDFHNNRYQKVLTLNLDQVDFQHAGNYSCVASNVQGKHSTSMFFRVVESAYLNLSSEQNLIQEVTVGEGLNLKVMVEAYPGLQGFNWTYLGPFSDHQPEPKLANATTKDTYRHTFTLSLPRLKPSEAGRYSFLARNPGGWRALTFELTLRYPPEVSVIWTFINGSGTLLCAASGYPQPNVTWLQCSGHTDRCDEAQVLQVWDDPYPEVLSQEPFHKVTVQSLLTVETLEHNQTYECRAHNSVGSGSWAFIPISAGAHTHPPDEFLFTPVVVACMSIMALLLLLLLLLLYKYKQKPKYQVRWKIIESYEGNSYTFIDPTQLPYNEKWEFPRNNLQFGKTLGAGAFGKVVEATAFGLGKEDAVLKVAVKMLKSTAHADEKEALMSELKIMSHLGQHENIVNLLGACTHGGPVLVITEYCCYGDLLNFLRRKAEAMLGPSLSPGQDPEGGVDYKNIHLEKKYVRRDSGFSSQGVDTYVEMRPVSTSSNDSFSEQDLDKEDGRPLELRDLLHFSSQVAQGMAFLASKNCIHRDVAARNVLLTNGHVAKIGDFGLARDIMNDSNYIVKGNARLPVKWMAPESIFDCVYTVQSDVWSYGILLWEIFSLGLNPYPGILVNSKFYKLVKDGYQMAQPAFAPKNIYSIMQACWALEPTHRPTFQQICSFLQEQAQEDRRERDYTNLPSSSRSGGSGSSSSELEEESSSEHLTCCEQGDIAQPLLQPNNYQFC
T2 sequence (O96017 whole entry): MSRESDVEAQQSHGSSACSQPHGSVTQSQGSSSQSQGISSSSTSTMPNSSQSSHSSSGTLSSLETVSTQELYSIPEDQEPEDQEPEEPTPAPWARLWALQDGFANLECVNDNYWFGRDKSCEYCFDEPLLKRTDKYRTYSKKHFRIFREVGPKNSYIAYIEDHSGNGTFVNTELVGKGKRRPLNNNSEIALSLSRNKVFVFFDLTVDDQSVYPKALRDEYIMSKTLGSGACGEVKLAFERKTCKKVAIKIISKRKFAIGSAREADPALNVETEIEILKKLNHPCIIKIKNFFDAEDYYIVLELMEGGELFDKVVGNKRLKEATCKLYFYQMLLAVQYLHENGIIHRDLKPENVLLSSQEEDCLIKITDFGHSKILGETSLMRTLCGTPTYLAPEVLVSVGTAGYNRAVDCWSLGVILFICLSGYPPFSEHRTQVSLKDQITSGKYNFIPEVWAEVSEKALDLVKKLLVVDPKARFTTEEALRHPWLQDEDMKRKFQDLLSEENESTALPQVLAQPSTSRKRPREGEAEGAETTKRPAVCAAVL

CN1CCN(Cc2ccc(Nc3ncc(Cl)c(Nc4ccccc4S(=O)(=O)N(C)C)n3)cc2)CC1 [TP-0903]
inhibition at 0.1 µM (PITSLRE): -18.9%
Kd (ABL1): < 5 nM
Inhibition (MAST1, MAST2): -5.0%
IC50 [1]: 16 to 22 nM
IC50 [2]: 16 to 21 nM
Kd (CHEK2): < 5 nM
phospho-FLT3 and phospho-STAT5 by immunoblot [3]: inhibited
pAURKA, pAURKB, pAKT, and MCL1 by immunoblot [4]: inhibited
inhibition at 0.1 µM (LCK): -4.3%
Inhibition (p38d, p38g): -17.4%
Inhibition (CDK11, CDK8): -14.9%
Inhibition (PKR; labeling site Activation Loop, peptide IGDFGLVTSLKNDGKR): -16.3%
Inhibition (PKR; labeling site Lys2, peptide DLKPSNIFLVDTK): -9.9%
Inhibition (TAO1, TAO3): 73.9%
Inhibition (MARK3, MARK4): 43.9%
IC50 (FLT3 D835Y): 0.12 nM
Kd (CSF1R): 16 nM
inhibition at 0.1 µM (MAP3K4; labeling site Lys1, peptide VYTCISVDTGELMAMKEIR): 2.7%
inhibition at 0.1 µM (MAP3K4; labeling site Lys2, peptide DIKGANIFLTSSGLIK): 24.7%
inhibition at 0.1 µM (EphB3): 17.1%
inhibition at 0.1 µM (CaMK1d; labeling site Lys1, peptide LFAVKCIPK): 13%
inhibition at 0.1 µM (CaMK1d; labeling site Lys2, peptide DLKPENLLYYSQDEESK): 8.8%
inhibition at 0.1 µM (MLK4): 12.7%
inhibition at 0.1 µM (TAK1): -11.5%
